Measurements from patent publication US20240018135A1, “COMPOUND HAVING INHIBITORY ACTIVITY AGAINST O-GLUSACASE AND USE THEREOF” (MEDIFRON DBT INC., priority 2020, published 2024).

Tests used:
[1] = target: Human OGA (recombinant hOGA protein) (Homo sapiens (Human), UniProt O60502); assay: Human OGA enzyme activity assay (fluorescence, 4-Methylumbelliferyl N-acetyl-β-D-glucosaminide substrate); format: biochemical; conditions: for IC50: Table 1; for % of inhibition: Table 1, test concentration not given
Sequence of Human OGA (recombinant hOGA protein) (O60502 whole entry): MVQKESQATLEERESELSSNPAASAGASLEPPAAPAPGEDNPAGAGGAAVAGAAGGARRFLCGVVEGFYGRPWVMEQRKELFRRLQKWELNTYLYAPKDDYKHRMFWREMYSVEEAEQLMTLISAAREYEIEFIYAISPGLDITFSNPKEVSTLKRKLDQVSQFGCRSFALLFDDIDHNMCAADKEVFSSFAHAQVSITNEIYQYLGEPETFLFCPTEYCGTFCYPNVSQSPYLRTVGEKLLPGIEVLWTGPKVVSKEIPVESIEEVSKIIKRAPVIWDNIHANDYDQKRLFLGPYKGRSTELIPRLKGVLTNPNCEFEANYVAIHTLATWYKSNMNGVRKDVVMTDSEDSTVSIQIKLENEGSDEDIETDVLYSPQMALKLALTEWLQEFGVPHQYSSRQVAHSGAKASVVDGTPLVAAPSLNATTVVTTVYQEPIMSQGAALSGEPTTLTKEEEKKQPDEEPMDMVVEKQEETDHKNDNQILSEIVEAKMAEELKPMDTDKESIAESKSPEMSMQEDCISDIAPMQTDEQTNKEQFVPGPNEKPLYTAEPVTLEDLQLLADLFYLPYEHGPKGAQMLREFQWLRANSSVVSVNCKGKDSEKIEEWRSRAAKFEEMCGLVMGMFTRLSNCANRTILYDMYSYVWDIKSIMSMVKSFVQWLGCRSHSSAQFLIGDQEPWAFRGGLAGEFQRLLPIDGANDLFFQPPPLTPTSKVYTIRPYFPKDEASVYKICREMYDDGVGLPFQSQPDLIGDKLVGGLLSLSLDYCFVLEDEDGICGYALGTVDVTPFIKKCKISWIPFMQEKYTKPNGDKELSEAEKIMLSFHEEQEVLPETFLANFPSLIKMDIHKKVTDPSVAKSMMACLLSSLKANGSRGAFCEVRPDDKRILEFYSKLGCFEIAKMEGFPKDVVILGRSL

With “1-((2-acetamidothiazol-5-yl)methyl)-N-(4-fluorophenyl)piperidine-4-carboxamide [Compound B-14]” the IC50 [1] was 300 nM and the “% of inhibition” value [1] was 89.0%.

With “1-((2-acetamidothiazol-5-yl)methyl)-N-(p-tolyl)piperidine-4-carboxamide [Compound B-15]” the IC50 [1] was 160 nM and the “% of inhibition” value [1] was 91.2%.

For `CC(=O)Nc1ncc(CN2CCN(CC(=O)Nc3ccccc3)CC2)s1` [Compound A-1, 2-(4-((2-acetamidothiazol-5-yl)methyl)piperazin-1-yl)-N-phenylacetamide], the IC50 [1] was 2600 nM and the “% of inhibition” value [1] was 78.3%.

For `CC(=O)Nc1ncc(CN2CCN(CC(=O)Oc3ccccc3)CC2)s1` [Compound A-2, phenyl 2-(4-((2-acetamidothiazol-5-yl)methyl)piperazin-1-yl)acetate], the melting point was 185 to 194 °C and the “% of inhibition” value [1] was 34.6%.

For `CC(=O)Nc1ncc(CN2CCN(CC(=O)Nc3ccc(C)cc3)CC2)s1` [Compound A-3, 2-(4-((2-acetamidothiazol-5-yl)methyl)piperazin-1-yl)-N-(p-tolyl)acetamide], the melting point was 213 to 217 °C and the “% of inhibition” value [1] was 70.7%.

In the case of `CC(=O)Nc1ncc(CN2CCN(CC(=O)Nc3ccccc3C)CC2)s1` [Compound A-4, 2-(4-((2-acetamidothiazol-5-yl)methyl)piperazin-1-yl)-N-(o-tolyl)acetamide], the melting point is reported as 194 to 196 °C and the “% of inhibition” value [1] is reported as 47.6%.

With `CC(=O)Nc1ncc(CN2CCN(CC(=O)Nc3cccc(C)c3)CC2)s1` [Compound A-5, 2-(4-((2-acetamidothiazol-5-yl)methyl)piperazin-1-yl)-N-(m-tolyl)acetamide] the melting point was 202 to 204 °C and the “% of inhibition” value [1] was 62.4%.

With `CC(=O)Nc1ncc(CN2CCN(CC(=O)Nc3ccc(C(C)C)cc3)CC2)s1` [Compound A-6, 2-(4-((2-acetamidothiazol-5-yl)methyl)piperazin-1-yl)-N-(4-isopropylphenyl) acetamide] the melting point was 173 to 176 °C and the “% of inhibition” value [1] was 79.2%.

With `COc1ccc(NC(=O)CN2CCN(Cc3cnc(NC(C)=O)s3)CC2)cc1` [Compound A-7, 2-(4-((2-acetamidothiazol-5-yl)methyl)piperazin-1-yl)-N-(4-methoxyphenyl)acetamide] the melting point was 217 to 220 °C, the IC50 [1] was 840 nM and the “% of inhibition” value [1] was 84.2%.

In the case of `COc1ccc(CCNC(=O)CN2CCN(Cc3cnc(NC(C)=O)s3)CC2)cc1` [Compound A-8, 2-(4-((2-acetamidothiazol-5-yl)methyl)piperazin-1-yl)-N-(4-methoxyphenethyl) acetamide], the melting point is reported as 177 to 179 °C, the IC50 [1] is reported as 630 nM and the “% of inhibition” value [1] is reported as 85.4%.

With `COc1cccc(NC(=O)CN2CCN(Cc3cnc(NC(C)=O)s3)CC2)c1` [Compound A-9, 2-(4-((2-acetamidothiazol-5 yl)methyl)piperazin-1-yl)-N-(3-methoxyphenyl) acetamide.] the melting point was 210 to 212 °C and the “% of inhibition” value [1] was 59.9%.

For `COc1ccc(NC(=O)CN2CCN(Cc3cnc(NC(C)=O)s3)CC2)cc1OC` [Compound A-10, 2-(4-((2-acetamidothiazol-5-yl)methyl)piperazin-1-yl)-N-(3,4-dimethoxyphenyl)acetamide], the melting point was 182 to 184 °C and the “% of inhibition” value [1] was 62.4%.

In the case of `CC(=O)Nc1ncc(CN2CCN(CC(=O)Nc3ccc(F)cc3)CC2)s1` [Compound A-11, 2-(4-((2-acetamidothiazol-5-yl)methyl)piperazin-1-yl)-N-(4-fluorophenyl)acetamide], the melting point is reported as 212 to 215 °C, the IC50 [1] is reported as 2610 nM and the “% of inhibition” value [1] is reported as 85.7%.

With `CC(=O)Nc1ncc(CN2CCN(CC(=O)Nc3ccc(Cl)cc3)CC2)s1` [Compound A-12] the melting point was 232 to 236 °C, the IC50 [1] was 1990 nM and the “% of inhibition” value [1] was 81.6%.

For `CC(=O)Nc1ncc(CN2CCN(CC(=O)Nc3ccc(Cl)cc3Br)CC2)s1` [Compound A-13, 2-(4-((2-acetamidothiazol-5-yl)methyl)piperazin-1-yl)-N-(2-bromo-4-chlorophenyl)acetamide], the melting point was 212 to 213 °C, the IC50 [1] was 1700 nM and the “% of inhibition” value [1] was 85.2%.

In the case of `CC(=O)Nc1ccc(NC(=O)CN2CCN(Cc3cnc(NC(C)=O)s3)CC2)cc1` [Compound A-14, N-(4-acetamidophenyl)-2-(4-((2-acetamidothiazol-5-yl)methyl)piperazin-1-yl)acetamide], the melting point is reported as 234 to 237 °C, the IC50 [1] is reported as 1250 nM and the “% of inhibition” value [1] is reported as 80.0%.

In the case of `CC(=O)Nc1ncc(CN2CCN(CC(=O)Nc3ccccn3)CC2)s1` [Compound A-15, 2-(4-((2-acetamidothiazol-5-yl)methyl)piperazin-1-yl) N-(pyridin-2-yl)acetamide], the “% of inhibition” value [1] is reported as 90.9%.

With `CC(=O)Nc1ncc(CN2CCN(CC(=O)Nc3cccc(C)n3)CC2)s1` [Compound A-16] the melting point was 224 to 228 °C and the “% of inhibition” value [1] was 38.6%.

In the case of `CC(=O)Nc1ncc(CN2CCN(CC(=O)Nc3ccc(C)cn3)CC2)s1` [Compound A-17, 2-(4-((2-acetamidothiazol-5-yl)methyl)piperazin-1-yl)-N-(5-methylpyridin-2-yl) acetamide], the melting point is reported as 224 to 230 °C and the “% of inhibition” value [1] is reported as 64.3%.

For `CC(=O)Nc1ncc(CN2CCN(CC(=O)Nc3cc(C)ccn3)CC2)s1` [Compound A-18, 2-(4-((2-acetamidothiazol-5-yl)methyl)piperazin-1-yl)-N-(4-methylpyridin-2-yl) acetamide], the melting point was 210 to 211 °C and the “% of inhibition” value [1] was 48.8%.

For `CC(=O)Nc1ncc(CN2CCN(CC(=O)Nc3cnccn3)CC2)s1` [Compound A-19, 2-(4-((2-acetamidothiazol-5-yl)methyl)piperazin-1-yl)-N-(pyrazin-2-yl)acetamide], the melting point was 224 to 226 °C and the “% of inhibition” value [1] was 74.7%.

With `CC(=O)Nc1ncc(CN2CCN(CC(=O)NC3CCCCC3)CC2)s1` [Compound A-20, 2-(4-((2-acetamidothiazol-5-yl)methyl)piperazin-1-yl)-N-cyclohexylacetamide] the melting point was 198 to 200 °C, the IC50 [1] was 1400 nM and the “% of inhibition” value [1] was 89.0%.

With `CC(=O)Nc1ncc(CN2CCN(CC(=O)Nc3nccs3)CC2)s1` [Compound A-21, 2-(4-((2-acetamidothiazol-5-yl)methyl)piperazin-1-yl)-N-(thiazol-2-yl)acetamide] the melting point was 237 to 240 °C and the “% of inhibition” value [1] was 59.1%.

For `COc1ccc2nc(NC(=O)CN3CCN(Cc4cnc(NC(C)=O)s4)CC3)sc2c1` [Compound A-28, 2-(4-((2-acetamidothiazol-5-yl)methyl)piperazin-1-yl)-N-(6-methoxybenzo[d]thiazol-2-yl)acetamide], the “% of inhibition” value [1] was 19.2%.

In the case of `CC(=O)Nc1ncc(CN2CCC(C(=O)NC(C)c3ccc(C)cc3)CC2)s1` (stereo not drawn) [Compound B-11, 1-((2-acetamidothiazol-5-yl)methyl)-N-(1-(p-tolyl)ethyl)piperidine-4-carboxamide], the IC50 [1] is reported as 830 nM and the “% of inhibition” value [1] is reported as 93.3%.

With `CC(=O)Nc1ncc(CN2CCC(C(=O)NC(C)c3ccc4ccccc4c3)CC2)s1` (stereo not drawn) [Compound B-12, 1-((2-acetamidothiazol-5 yl)methyl)-N-(1-(naphthalen-2-yl)ethyl)piperidine-4-carboxamide] the IC50 [1] was 250 nM and the “% of inhibition” value [1] was 96.8%.
